Laboratory results taken from patent US7060821B2, “Osteoclast differentiation inhibitors” (Mercian Corporation, priority 2002, dated 2006).
In brackets after ≈: the same amount, converted by molar mass.

Experiments:
[1] = tested on: Colon 26 (colon cancer); experiment: Growth inhibition (MTT) of Colon 26 cells; type: cell-based, murine; details: Mus musculus, Colon26 cells, 48 hours, read-out: 50% growth inhibition concentration
Experimental: (§1) Note that the tests were performed as follows. Various kinds of murine cancer cells (L1210 (leukemia)), Colon 26 (colon cancer), B16BL6 (malignant melanoma)) were suspended in RPMI1640 medium containing 10% fetal calf serum and adjusted to 2×10^4 cells/well and 0.1 ml of each of the suspensions was seeded on a 96-well plate. At the same time, a predetermined amount of the substance F-1490 was added and the resultants were cultivated at 37° C. for 48 hours in the air containing 5% CO2. Further, 10 μl of 0.5% MTT (3-[4,5-dimethylthiazol-2-yl] […] tetrazolium bromide) was added and the resultants were cultivated for 4 hours. After the cultivation, 0.1 ml of 10% SDS-0.01N hydrochloric acid was added and absorbance at 570 nm was measured to determine 50% growth inhibition concentration.

[2] = tested on: L1210 (leukemia); experiment: Growth inhibition (MTT) of L1210 cells; type: cell-based, murine; details: Mus musculus, 48 hours, read-out: 50% growth inhibition concentration
Experimental: as §1

[3] = tested on: B16BL6 (malignant melanoma); experiment: Growth inhibition (MTT) of B16BL6 cells; type: cell-based, murine; details: Mus musculus, B16-BL6, 48 hours, read-out: 50% growth inhibition concentration
Experimental: as §1

[4] = tested on: bone marrow cells (differentiation into osteoclasts); experiment: Osteoclast differentiation inhibition: count of tartaric acid-resistant acid phosphatase-positive cells; type: cell-based, C57BL/6 mouse
Experimental: Bone marrow cells were collected from a C57BL/6mouse (female, 6 weeks old) and suspended in RPMI1460 medium that contains 10% fetal calf serum, 1 mM pyruvic acid, 0.1 mM non-essential amino acids (manufactured by Gibco), 500 μM 2-mercaptoethanol, 200 ng/ml parathyroid hormone related protein (PTHrP) and 50 μg/ml L-ascorbic acid and 1 ml of the suspension adjusted to a cell population of 1.5×10^6 cells/well was inoculated on a 24-well microplate. At the same time a test sample was added in appropriate amounts. On days 2 and 4 from the start of the cultivation, half the amount of the medium is exchanged with fresh medium containing the test sample. On day 7 from the start of the cultivation, the medium is removed by suction and the cells are fixed with an acetone:methanol (1:1) solution, to thereby allow tartaric acid-resistant acid phosphatase-positive cells stained. That is, 0.4 ml of a 0.2-M acetate buffer (pH 5.2) containing a staining fluid (0.1 mg/ml Naphthol AS-MX phosphate (Sigma AB), 0.6 mg/ml Fast red violet LB sal (Sigma AB) and 20 mM tartaric acid is added to each well and the resultants are allowed to react at 37° C. for 1 hour. After color development, the number of tartaric acid-resistant acid phosphatase-positive cells, which is an index of differentiation into osteoclasts, is measured under a microscope.
When the test sample contains a substance that is effective for inhibition of osteoclast differentiation, the occurrence of tartaric acid-resistant acid phosphatase-positive cells is inhibited. From changes in the above-mentioned number of cells depending on the concentration of the test sample, an effective concentration range of the test sample can be obtained.

SMILES: O=C(O)c1cccc2c1NC1CCCCC1(O)O2 (centres unmarked) [Substance F-1490-A]
- IC50 [1]: > 50 µg/mL
- IC50 [2]: > 50 µg/mL
- IC50 [3]: > 50 µg/mL
- IC50 ([4]; Mus musculus, Table 1, osteoclast differentiation test, read-out: 50% growth inhibition concentration): 0.65 µg/mL (≈ 2.61 µM)
- inhibition at 0.2 µg/mL ([4]; Osteoclast, 168 h, concentration 0.20 μg/ml, day 7, PTHrP-stimulated mouse bone marrow cells, read-out: Inhibition rate of differentiation into osteoclasts (%)): 2%
- inhibition at 0.78 µg/mL ([4]; Osteoclast, 168 h, concentration 0.78 μg/ml, day 7, PTHrP-stimulated mouse bone marrow cells, read-out: Inhibition rate of differentiation into osteoclasts (%)): 63%
- inhibition at 3.1 µg/mL ([4]; Osteoclast, 168 h, concentration 3.10 μg/ml, day 7, PTHrP-stimulated mouse bone marrow cells, read-out: Inhibition rate of differentiation into osteoclasts (%)): 74%
- inhibition at 12.5 µg/mL ([4]; Osteoclast, 168 h, concentration 12.50 μg/ml, day 7, PTHrP-stimulated mouse bone marrow cells, read-out: Inhibition rate of differentiation into osteoclasts (%)): 87%
